Data taken from patent publication US20090232915A1, “MIXTURES WITH A COLLAGEN SYNTHESIS BOOSTING ACTION” (SYMRISE GmbH & Co., KG, priority 2008, published 2009).
“And” between values parts separate entries of the source, which are not always exact repeats. Identical values can stand only once.

Test system: normal human dermal fibroblasts (NHDF)
Assay: Collagen synthesis boosting activity, Sirius Red staining of collagen in fibroblast monolayer (96 well)
Type: cell-based
Conditions: 48 h incubation
Protocol: Method for determining the collagen synthesis boosting activity of selected substances of natural or synthetic origin.
Fibroblasts are responsible for collagen synthesis in the dermis layer of the skin. The test system involves culturing normal human dermal fibroblasts (NHDF) in a “monolayer” culture in 96 well MTPs, incubating them over a defined period with test substances and then determining the increase in collagen qualitatively by a staining method.
The principle of the assay is based on histological, specific staining of the soluble collagen (predominantly type I and III collagen) with the assistance of the dye Sirius Red (Direct Red 80). Sirius Red is an anionic dye having sulfonic acid groups attached to its side chains. These sulfonic acid groups react with the side chain groups of the amino acids (proline, hydroxyproline, lysine and hydroxylysine) predominantly occurring in collagen, it being necessary for an intact collagen structure to be present.
The model used for the assay design is the procedure described in B. J. Walsh et al., Analytical Biochemistry 203, 187-190 (1992) for the quantitative determination of collagen on the 96 well scale. […]
After a 24 h adaptation phase for the NHDF, the cells are incubated (37° C., 5% CO2) for 48 h with the incubation solution and corresponding control solutions (solvent and blank). […] The absorption of the resultant dye solution can be determined photometrically at 540 nm.
Thanks to the linear relationship between collagen content and the OD values arising from staining, the increase in OD is determined for qualitative assessment of the collagen synthesis boosting effect. To this end, the mean and standard deviations of the controls and the test samples are calculated and then a background or blank correction is made. […]
The synergy index (SI) values of the ternary mixtures according to the invention were calculated according to Kull (literature: F. C. Kull et al, Applied Microbiology vol. 9, p. 538-541 (1961); D. C. Steinberg, Cosmetics & Toiletries vol. 115(11), 59-62 (2000) by means of the following equation. […]

[1] = usage concentration 1.020 mg/ml

SMILES	Collagen synthesis boost [%], relative to untreated control (usage concentration 0.362 mg/ml)	Collagen synthesis boost [%], relative to untreated control [1] [%]
O=C1O[C@H]([C@@H](O)CO)C([O-])=C1OP(=O)([O-])[O-].O=C1O[C@H]([C@@H](O)CO)C([O-])=C1OP(=O)([O-])[O-].[Mg+2].[Mg+2].[Mg+2] [Magnesium ascorbyl phosphate (Bio172), Magnesium ascorbyl phosphate]	66.97% and 67.44%	–
O=C1O[C@H]([C@@H](O)CO)C([O-])=C1OP(=O)([O-])[O-].O=C1O[C@H]([C@@H](O)CO)C([O-])=C1OP(=O)([O-])[O-].[Mg+2].[Mg+2].[Mg+2] [Magnesium ascorbyl phosphate (Bio1300/1), Magnesium ascorbyl phosphate]	–	141.13
O=C1O[C@H]([C@@H](O)CO)C([O-])=C1OP(=O)([O-])[O-].[Na+].[Na+].[Na+] [Sodium ascorbyl phosphate (Bio1586), Sodium ascorbyl phosphate]	–	144.57
